Data: patent publication US20220339134A1, “VERY-LONG-CHAIN POLYUNSATURATED FATTY ACIDS, ELOVANOID HYDROXYLATED DERIVATIVES, AND METHODS OF USE” (Board of Supervisors of Louisiana State University and …, priority 2019, published 2022)

What was measured:
[1] = test system: human diabetic and non-diabetic adipocytes; assay: TP53 and IL8 expression (Taqman Real time PCR) in human adipocytes treated with IL1β; type: cell-based
Experimental: A) experimental design. B) expression levels of TP53 and IL8 in human diabetic and non-diabetic adipocytes by the means of Taqman Real time PCR.
IL1β is a cytokine that induce insulin resistance in adipocytes 18 • Similarly, IL8 was elevated by IL1β and brought down around 40 folds by 500 nM ELV34 in both diabetic and non-diabetic adipocytes. Even though the mechanisms are unknown ELV34 can be a therapeutic agent to stop or halt damaging signaling observed in diabetic patients.

RPE and PRC = assay: Subretinal injection of OAβ in WT mice +/- ELVs (RPE flat mount, OCT, qPCR, Western blot); type: in vivo; conditions: for OAβ-activated senescence program (p16INK4a, MMP1, p53, p21, p27, Il-6, SASP secretome) followed by RPE and PRC demise: summary of mouse and human RPE data
Description: (A) In vivo experimental design: 6-month-old C57BL/6J WT mice were divided into 7 groups (n=12/group): non-injected, PBS, OAβ only, OAβ+ELV-N-32, OAβ+ELV-N-34, ELV-N-32 only and ELV-N-34 only. On day 3, mRNA were isolated for Real-Time PCR. On day 7, mice were subjected to OCT and then eyes enucleated and processed for whole mount RPE staining and Western blots. (B) Whole flat mount of RPE with tight junction marker, Zonula occludens-1 (ZO-1) antibody. OAβ disrupted RPE morphology. (C) OAβ effects on retina and RPE by OCT. (D) Thickness of PRC layer was thinner in OAβ injected group. (E) RPE gene expression after Oaβ (1-42) injection and treatment with ELVs. (E-G) Gene expression in the same functional group were plotted. Senescence- and AMD-related genes (E), and collagenases, gelatinase, stromelysins and others matrix metalloproteinases (MMP) (F) and autophagy (G). (H) p16INK4a, a key marker for senescence, western blots of RPE. (I) Retina apoptosis gene expression after OAβ (1-42) injection and treatment with ELVs. (*P<0.05, student t-test).
ELVs restore RPE morphology and reduce gene expression after subretinal injection of OAβ in WT mice. (A) Mice were divided into 7 groups: non-injected, PBS, OAβ only, OAβ+ELV-N-32, OAβ+ELV-N-34, ELV-N-32 only and ELV-N-34 only. On day 3, mRNA were isolated for RT-PCR. On day 7, mice were subjected to OCT and then eyes were enucleated and processed to whole mount RPE staining and Western blot. (B) Whole flat mount of RPE. OAβ disrupted RPE morphology. However, RPE were less damage in the ELVs treatment group as well as PBS, ELVs alone did non induce changes. (C) Evaluation the OAβ effects on retina and RPE by OCT. (D) The thickness of PRC was thin in the OAβ injected group. OAβ cause the cell death of PRC, as the thinner in OCT measurement. (E) RPE gene expression after OAβ (1-42) injection and treatment with ELVs. 3 days after injection, the RNAs from RPE were isolated, reverse transcribed into cDNA and subjected to RT-PCR with different primers. Genes in the same functional group were plotted in the same chart, including senescence- and AMD-related genes (E), and collagenases, gelatinase, stromelysins and others matrix metalloproteinases (MMP) (F) and autophagy (G). (H) p16INK4a western blots of RPE/Choroid. […] (I) Retina gene expression after OAβ (1-42) injection and treatment with ELVs. OAβ activates apoptosis genes in the retina. […] (*P<0.05, using student t-test comparison).
All animal experiments were performed according to ARVO Statement for the Use of Animals in Ophthalmic and Vision Research, and the protocol was approved by LSU Health New Orleans' Institutional Animal Care and Use Committee (IACUC). 6-month-old 5×FAD mice (stock number: 34848-JAX, The Jackson Laboratory, Bar Harbor, Me., USA), co-overexpress FAD mutant forms of human amyloid precursor protein (the Swedish mutation: K670N, M671L; the Florida mutation: I716V; and the London mutation: V7171) and presenilin 1 (PS1, encoded by Psen1: M146L, L286V) transgenes under transcriptional control of the neuron-specific mouse Thy1 promoter. 5×FAD mice were hemizygotes with respect to the transgenes and non-transgenic WT littermates. Genotyping was performed by PCR of tail DNA. All analyses were carried out blind with respect to the mice genotype. For the subretinal injection, 6-month-old C57BL/6J mice were anesthetized by an intraperitoneal injection of ketamine/xylazine, pupils dilated with 1.0% tropicamide (Akorn, Ill., USA); and 0.5% Proparacaine Hydrochloride (Akorn) was applied for topical anesthesia. Eyes were punctured with a 30-gauge needle between the corneoscleral junction and the ora serrata into the vitreous cavity without disturbing the lens. Compounds were delivered to the subretinal region using a 33-gauge blunt needle attached to a 5p.1 Hamilton syringe (Hamilton Company, Reno, Nev., USA) under a dissecting microscope. Non-injected mice were used as negative control while the PBS injected mice were used for sham. […]

db/db mice hypothalamus = assay: IL6 (marker of SASP) induced by IL1β in diabetic mouse hypothalamus; type: cell-based
Description: Different effects have been observed in female and male mice.

[2] = co-injected with OAβ subretinally, then topical ELV, day 7

`CC/C=C\C[C@H](O)\C=C/C=C/C=C/[C@H](O)C/C=C\C/C=C\CCCCCCCCCCCCCCC(=O)O` [ELV-N-34] was tested, and the IL8 brought down ([1]; 500 nM, IL1β-elevated, diabetic and non-diabetic adipocytes) was “around 40 folds”, the “levels of TP53 mRNA” value ([1]; adipocytes from diabetic patient treated with IL1β) was “down to non-diabetic control levels” and the “effect of IL1β (TP53 and IL8 expression)” value ([1]; human diabetic adipocytes) was “revert the effect of IL1β”. For the same molecule, the “PRC degeneration / ONL after ELV injected alone” value (RPE and PRC; ELV alone, no OAβ, subretinal) was “did not yield PRC degeneration”, the “PRC protection (PRC layer, OCT)” value (RPE and PRC; [2]) was “protection of PRC” and the “RPE morphology (ZO-1 whole flat mount)” value (RPE and PRC; [2]) was “restoration of RPE morphology”. For the same molecule, the “p16INK4a protein (western blot of RPE/Choroid)” value (RPE and PRC; elevated by OAβ injection, day 7) was “down regulated”, the “OAβ-activated senescence program (p16INK4a, MMP1, p53, p21, p27, Il-6, SASP secretome) followed by RPE and PRC demise” value (from here on “OAβ-activated senescence program”) (RPE and PRC) was “blunt these events and elicit protection to both cells” and the “OAβ-activated senescence program” value (RPE and PRC; listed as ELV 34) was “downregulatory mediators of OAβ-evoked senescence”. For the same molecule, the “OAβ-activated senescence program” value (RPE and PRC; listed as elovanoid 34) was “blunt these events and elicits protection” and the “levels of IL6 (marker of SASP)” value (db/db mice hypothalamus) was “reduced”.
